Source: US20220275391A1, “METHODS OF USING ALS INHIBITOR HERBICIDES FOR CONTROL OF UNWANTED VEGETATION IN ALS INHIBITOR HERBICIDE TOLERANT BETA VULGARIS PLANTS” (priority 2010, published 2022)

Legend:
[1] = tested on: KLARINA; experiment: Field trial, phytotoxicity scoring on ALS inhibitor sensitive reference variety KLARINA; settings: BBCH 14
From the text: (§3) The water quantity applied in the various applications equaled 200 l/ha. At 8, 14, 16, 17, 28, and 31 days (as indicated in the various Tables) after application (DAA) of the respective ALS inhibitor herbicide(s), the damages (phytotoxicity/phyto) on the different sugar beet plants were scored according to the scale from 0% to 100%.
(§4) In this context, “0%” means “no phytotoxicity/phyto” and “100%” means plants were completely killed.

[2] = tested on: SB574TL based sugar beet; experiment: Field trial, phytotoxicity scoring on homozygous SB574TL mutant sugar beet; format: in vivo, Beta vulgaris; settings: BBCH 14
From the text: Based on SB574TL, F4—F6 seeds conferring the mutant allele of the endogenous ALS gene in the homozygous state were applied for further testing.

[3] = tested on: BERETTA; experiment: Field trial, phytotoxicity scoring on ALS inhibitor sensitive reference variety BERETTA; format: in vivo, Beta vulgaris; settings: BBCH 14
From the text: as §3, §4

[4] = tested on: wild type plants; experiment: Greenhouse herbicide treatment of plants regenerated from wild type cell cultures; settings: lowest doses tested (range 7-70 g a.i./ha foramsulfuron, 1-10 g a.i./ha iodosulfuron-methyl-sodium, mixtures 7:1)
Experimental: (§1) During the first 10-15 days after transfer into soil containing substrate the plants were kept in an environment with high air humidity. During and after they were weaned to normal greenhouse air humidity regimes the plants were kept in the greenhouse under artificial light (12 h) at 20+−3° C./15+−2° C. day/night temperatures.
(§2) The herbicide doses tested were equivalent to 7-70 g a.i./ha for foramsulfuron and 1-10 g a.i./ha for iodosulfuron-methyl-sodium.

[5] = tested on: regenerated plants from foramsulfuron tolerant cell culture (SB574TL); experiment: Greenhouse herbicide treatment of plants regenerated from the foramsulfuron tolerant cell culture
Experimental: From this clone (SB574TL), shoots were regenerated in presence of the ALS inhibitor herbicide and then the shoots were transferred to MS medium containing 0.05 mg/l Naphthalene acetic acid (NAA).
as §1, §2

[6] = tested on: sugar beet cell cultures (genotype 7T9044); experiment: Selection of sugar beet cell colonies on foramsulfuron medium; format: cell-based, Beta vulgaris; settings: 3×10^−6 M of foramsulfuron in medium
From the text: Sugar beet cell cultures were initiated from seedlings of a diploid sugar beet genotype 7T9044 (as, for example, described by Alexander Dovzhenko, PhD Thesis, Title: “Towards plastid transformation in rapeseed (Brassica napus L.) and sugarbeet (Beta vulgaris L.)”, Ludwig-Maximilians-Universität München, Germany, 2001). Callus obtained therefrom was exposed to 10^−7 M foramsulfuron. Surviving and growing cell colonies were numbered and transferred after 4-6 weeks onto fresh medium containing 3×10^−7 M of the inhibitor. One of these cell colonies was able to grow not only at this concentration of the inhibitor but even in presence of 3×10^−6 M of foramsulfuron [CAS RN 173159-57-4].

COc1cc(OC)n2nc(S(=O)(=O)Nc3c(Cl)ccc(C)c3Cl)nc2n1 [Metosulam (A3-5), metosulam]
% phyto ([1]; 30 g/ha, 8 days): 90%
% phyto ([1]; 30 g/ha, 14 days): 97%
% phyto ([1]; 30 g/ha, 28 days): 93%

COc1nn(C(=O)[N-]S(=O)(=O)c2ccccc2OC(F)(F)F)c(=O)n1C.[Na+] [Flucarbazone-sodium (A2-1), flucarbazone-sodium]
% phyto ([2]; 40 g/ha, 8 days (Table 3)): 0%
% phyto ([2]; 40 g/ha, 16 days): 0%
% phyto ([2]; 40 g/ha, 38 days): 0%
% phyto ([3]; 40 g/ha, 8 days): 80%
% phyto ([3]; 40 g/ha, 16 days): 89%
% phyto ([3]; 40 g/ha, 38 days): 89%

COC(=O)c1ccccc1S(=O)(=O)NC(=O)Nc1nc(C)cc(C)n1 [Sulfometuron-methyl (A1-27), sulfometuron-methyl]
% phyto ([2]; 60 g/ha, 8 days (Table 3)): 0%
% phyto ([2]; 60 g/ha, 16 days): 3%
% phyto ([2]; 60 g/ha, 38 days): 0%
% phyto ([3]; 60 g/ha, 8 days): 80%
% phyto ([3]; 60 g/ha, 16 days): 97%
% phyto ([3]; 60 g/ha, 38 days): 100%

COC(=O)c1ccc(CNS(C)(=O)=O)cc1S(=O)(=O)NC(=O)Nc1nc(OC)cc(OC)n1 [Mesosulfuron-methyl (A1-17), mesosulfuron-methyl]
% phyto ([1]; 60 g/ha, 8 days): 90%
% phyto ([1]; 60 g/ha, 14 days): 97%
% phyto ([1]; 60 g/ha, 28 days): 99%

COc1cc(OC)nc(NC(=O)NS(=O)(=O)c2ncccc2OCC(F)(F)F)n1 [Trifloxisulfuron-sodium (A1-32), trifloxysulfuron]
% phyto ([2]; 15 g/ha, 8 days (Table 3)): 0%
% phyto ([2]; 15 g/ha, 16 days): 0%
% phyto ([2]; 15 g/ha, 38 days): 0%
% phyto ([3]; 15 g/ha, 8 days): 80%
% phyto ([3]; 15 g/ha, 16 days): 98%
% phyto ([3]; 15 g/ha, 38 days): 100%

COc1cc(OC)nc(Oc2cccc(Oc3nc(OC)cc(OC)n3)c2C(=O)O)n1 [Bispyribac-sodium (C1-1), bispyribac-sodium]
% phyto ([2]; 50 g/ha, 8 days): 23%
% phyto ([2]; 50 g/ha, 14 days): 30%
% phyto ([2]; 50 g/ha, 28 days): 0%
% phyto ([1]; 50 g/ha, 8 days): 90%
% phyto ([1]; 50 g/ha, 14 days): 98%
% phyto ([1]; 50 g/ha, 28 days): 99%

CCS(=O)(=O)c1cccnc1S(=O)(=O)NC(=O)Nc1nc(OC)cc(OC)n1 [Rimsulfuron (A1-26), rimsulfuron]
% phyto ([1]; 12.5 g/ha, 8 days): 81%
% phyto ([1]; 12.5 g/ha, 14 days): 85%
% phyto ([1]; 12.5 g/ha, 28 days): 76%

COc1ncc(F)c2nc(S(=O)(=O)Nc3c(F)cccc3F)nn12 [Florasulam (A3-3), florasulam]
% phyto ([2]; 10 g/ha, 8 days (Table 3)): 0%
% phyto ([2]; 10 g/ha, 16 days): 0%
% phyto ([2]; 10 g/ha, 38 days): 0%
% phyto ([3]; 10 g/ha, 8 days): 80%
% phyto ([3]; 10 g/ha, 16 days): 98%
% phyto ([3]; 10 g/ha, 38 days): 98%

COc1cc(OC)nc(NC(=O)NS(=O)(=O)c2ncccc2C2=NOCCO2)n1.[Na+] [(A1-87)]
% phyto ([2]; 15 g/ha, 8 days): 0%
% phyto ([2]; 15 g/ha, 14 days): 0%
% phyto ([2]; 15 g/ha, 28 days): 0%
% phyto ([2]; 30 gai/ha, 8 DAA): 0%
% phyto ([2]; 30 gai/ha, 17 DAA): 0%
% phyto ([2]; 30 gai/ha, 31 DAA): 0%
% phyto ([1]; 15 g/ha, 8 days): 90%
% phyto ([1]; 15 g/ha, 14 days): 97%
% phyto ([1]; 15 g/ha, 28 days): 99%
% phyto ([1]; 30 gai/ha, 8 DAA): 83%
% phyto ([1]; 30 gai/ha, 17 DAA): 100%
% phyto ([1]; 30 gai/ha, 31 DAA): 100%

COCc1cnc(C2=NC(C)(C(C)C)C(=O)N2)c(C(=O)O)c1 (centres unmarked) [Imazamox (B1-2), imazamox]
% phyto ([2]; 40 g/ha, 8 days): 0%
% phyto ([2]; 40 g/ha, 14 days): 0%
% phyto ([2]; 40 g/ha, 28 days): 0%
% phyto ([1]; 40 g/ha, 8 days): 90%
% phyto ([1]; 40 g/ha, 14 days): 97%
% phyto ([1]; 40 g/ha, 28 days): 99%

COC(=O)c1csc(C)c1S(=O)(=O)NC(=O)n1nc(OC)n(C)c1=O [Thiencarbazone-methyl (A2-3), thiencarbazone-methyl]
% phyto ([1]; 15 g/ha, 8 days): 90%
% phyto ([1]; 15 g/ha, 14 days): 97%
% phyto ([1]; 15 g/ha, 28 days): 100%
% phyto ([1]; 30 g/ha, 8 days): 90%
% phyto ([1]; 30 g/ha, 14 days): 97%
% phyto ([1]; 30 g/ha, 28 days): 100%

CC(C)C1(C)N=C(c2nc3ccccc3cc2C(=O)O)NC1=O (centres unmarked) [Imazaquin (B1-5), imazaquin]
% phyto ([2]; 100 g/ha, 8 days (Table 3)): 0%
% phyto ([2]; 100 g/ha, 16 days): 0%
% phyto ([2]; 100 g/ha, 38 days): 0%
% phyto ([3]; 100 g/ha, 8 days): 80%
% phyto ([3]; 100 g/ha, 16 days): 98%
% phyto ([3]; 100 g/ha, 38 days): 100%

COc1nc(C)nc(NC(=O)NS(=O)(=O)c2ccccc2OCCCl)n1 [Triasulfuron (A1-30), triasulfuron]
% phyto ([2]; 30 g/ha, 8 days (Table 3)): 0%
% phyto ([2]; 30 g/ha, 16 days): 0%
% phyto ([2]; 30 g/ha, 38 days): 0%
% phyto ([3]; 30 g/ha, 8 days): 80%
% phyto ([3]; 30 g/ha, 16 days): 98%
% phyto ([3]; 30 g/ha, 38 days): 100%

COC(=O)c1ccc(I)cc1S(=O)(=O)[N-]C(=O)Nc1nc(C)nc(OC)n1.[Na+] [Iodosulfuron-methyl-sodium (A1-16), iodosulfuron-methyl-sodium]
% phyto ([2]; 7 g/ha, 8 days): 0%
% phyto ([2]; 7 g/ha, 14 days): 0%
% phyto ([2]; 7 g/ha, 28 days): 0%
% phyto ([2]; 15 gai/ha, 8 DAA): 0%
% phyto ([2]; 15 gai/ha, 17 DAA): 0%
% phyto ([2]; 15 gai/ha, 31 DAA): 0%
effect of herbicide treatment on wild type plants [4]: killed
tolerance of regenerated plants to herbicide treatment ([5]; highest doses tested (range 7-70 g a.i./ha foramsulfuron, 1-10 g a.i./ha iodosulfuron-methyl-sodium, mixtures in the ratio 7:1), greenhouse): tolerated even the highest herbicide doses
% phyto ([1]; 7 g/ha, 8 days): 90%
% phyto ([1]; 7 g/ha, 14 days): 97%
% phyto ([1]; 7 g/ha, 28 days): 100%
% phyto ([1]; 15 gai/ha, 8 DAA): 83%
% phyto ([1]; 15 gai/ha, 17 DAA): 98%
% phyto ([1]; 15 gai/ha, 31 DAA): 100%

COc1cc(OC)nc(NC(=O)NS(=O)(=O)c2ncccc2C(=O)N(C)C)n1 [Nicosulfuron (A1-20), nicosulfuron]
% phyto ([2]; 60 g/ha, 8 days): 0%
% phyto ([2]; 60 g/ha, 14 days): 0%
% phyto ([2]; 60 g/ha, 28 days): 0%
% phyto ([1]; 60 g/ha, 8 days): 90%
% phyto ([1]; 60 g/ha, 14 days): 98%
% phyto ([1]; 60 g/ha, 28 days): 100%

COC(=O)c1ccccc1S(=O)(=O)NC(=O)Nc1nc(C)nc(OC)n1 [Metsulfuron-methyl (A1-28), metsulfuron-methyl]
% phyto ([1]; 8 g/ha, 8 days): 88%
% phyto ([1]; 8 g/ha, 14 days): 98%
% phyto ([1]; 8 g/ha, 28 days): 99%

COC(=O)c1sccc1S(=O)(=O)NC(=O)Nc1nc(C)nc(OC)n1 [Thifensulfuron-methyl (A1-29), thifensulfuron-methyl]
% phyto ([1]; 7.5 g/ha, 8 days): 90%
% phyto ([1]; 7.5 g/ha, 14 days): 98%
% phyto ([1]; 7.5 g/ha, 28 days): 100%

COC(=O)c1ccccc1S(=O)(=O)NC(=O)N(C)c1nc(C)nc(OC)n1 [Tribenuron-methyl (A1-31), tribenuron-methyl]
% phyto ([1]; 30 g/ha, 8 days): 91%
% phyto ([1]; 30 g/ha, 14 days): 98%
% phyto ([1]; 30 g/ha, 28 days): 100%

COc1cc(OC)nc(NC(=O)NS(=O)(=O)c2cc(NC=O)ccc2C(=O)N(C)C)n1 [Foramsulfuron (A1-13), foramsulfuron]
growth of selected cell colony (clone SB574TL) in presence of the inhibitor [6]: able to grow
effect of herbicide treatment on wild type plants [4]: killed
tolerance of regenerated plants to herbicide treatment ([5]; in vivo): tolerated even the highest herbicide doses
% phyto ([1]; 25 g/ha, 8 days): 85%
% phyto ([1]; 25 g/ha, 14 days): 83%
% phyto ([1]; 25 g/ha, 28 days): 86%
% phyto ([1]; 50 g/ha, 8 days): 90%
% phyto ([1]; 50 g/ha, 14 days): 92%
% phyto ([1]; 50 g/ha, 28 days): 94%

COc1nc(C)nc(NC(=O)NS(=O)(=O)c2ccccc2I)n1.[Na] [(A1-41), 2-iodo-N-[(4-methoxy-6-methyl-1,3,5-triazinyl)carbamoyl]benzene-sulfonamide sodium salt]
% phyto ([2]; 30 g/ha, 8 days): 14%
% phyto ([2]; 30 g/ha, 14 days): 10%
% phyto ([2]; 30 g/ha, 28 days): 0%
% phyto ([1]; 30 g/ha, 8 days): 90%
% phyto ([1]; 30 g/ha, 14 days): 98%
% phyto ([1]; 30 g/ha, 28 days): 100%
